Data published in patent US20200352918A1, “COMPOUNDS AND METHODS FOR TREATING OR PREVENTING FIBROSIS” (priority 2019, published 2020).
Entries after “also recorded” stand apart in the source; their conditions may differ.

Assays:
iFA model [1] = assay: Proliferation by EdU labeling in the iFA model; assay type: cell-based, human; conditions: AA5-prevention vs DMSO, 6 h EdU
Protocol: Cells were incubated with 10 μM EdU (Invitrogen) at specified time points of culture for 6 hrs, fixed with 4% PFA, and detected by staining with Alexa594-azide according to the manufacturer's instructions. The cells were additionally counterstained with Vimentin and/or α-SMA and DAPI.

SSEA4+ cells = assay: FACS of SSEA4+ cells in the iFA model; assay type: cell-based, human; conditions: AA5 treatment
Protocol: For determination of various cell populations in the iFA model, the cells were dissociated using Accumax (Stem Cell Technologies) for 5 minutes, pelleted and resuspended in FACS buffer (3% Fetal Bovine Serum/PBS). 1×10^6 cells were incubated with a the appropriate conjugated antibody listed in Table 3 for 20 minutes at 4° C. under shaking conditions. The cells were washed with the FACS buffer and acquired using a flow cytometer (BD LSRII) and analysed using FACS Diva and FlowJo softwares.

iFA model [2] = assay: In situ cell elasticity by atomic force microscopy in the iFA model; assay type: cell-based, human; conditions: AA5 vs DMSO-treated iFA model
Protocol: Tapping mode AFM using the Bruker BioScope Catalyst Atomic Force coupled with Zeiss LSMS Confocal Fluorescence Microscope was used on the cells at 37° C. in cell culture media. AFM deflection images of cells were used in the imaging experiment. In the force measurement, sharp silicon nitride AFM probes (tip radius, 20 nm) were employed (Bruker Corp., USA). The spring constants of AFM tips were calibrated to be 0.10-0.11 N m^−1 and deflection sensitivities were 45-50 nm V^−1, using Thermo K Calibration (Agilent Technologies, USA). The approaching/retracting speed of the AFM tip during the force curve measurement was 6 μm s^−1. Force-distance curves were recorded to obtain cell elasticity (Young's modulus, E) of individual cells. For each time point, at least 20 single cells, 20 cells at the base of the iFA and 20 cells at the tip of the scar were measured with over 15 force-distance curves per cell to obtain significant results. The Young's modulus was calculated via the Scanning Probe Image Processor (SPIP) software (Image Metrology, Denmark) by converting the force-distance curves to force-separation curves and fitting the Sneddon variation of the Hertz model, which describes conical tips indenting elastic samples.

[3] = system: bleomycin model of lung injury; assay: Bleomycin-induced pulmonary fibrosis in aged mice; assay type: in vivo
Protocol: To define the anti-fibrotic effect of AA5, a bleomycin model of lung injury in aged mice was used as a model of lung fibrosis (FIG. 30A). 52-week-old mice were challenged with bleomycin (3 U/kg) by the oropharyngeal route to induce lung injury, followed by systemic administration of AA5 (20 mg/kg) or DMSO, from days 7-21 post bleomycin injury. Naïve mice were maintained as controls. The mice were sacrificed on day 21 and the total collagen content of the lungs was quantified using the hydroxyproline assay. […] The percentage of fibrotic areas from each section was quantified using hematoxylin and eosin staining, tiled and imaged on a Zeiss Axioscope microscope at 2.5× and quantified using the spline contour tool using the ZEN 2011 software.
Naive mice (n=4) without bleomycin were also monitored in the same manner throughout treatment period. […] Data represent min-max and median of collagen content relative to total protein content. ***P<0.001 **P<0.01 using one-way ANOVA and Sidak's multiple comparison test. FIGS. 30C and 30D show a representative H&E section of bleomycin treated lungs with the borders of the lung and fibrotic areas marked using the spline contour tool (FIG. 30C). […] Scale bar, 200 μm. […] Scale bars, 100 μm.

## Cc1c(C(=O)Nc2nc3ccccc3s2)sc2nc3cc4c(cc3cc12)OCO4 [AA5]
iFA model [1]
  Proliferation (EdU): no effect on proliferation; also recorded: did not display any significant difference in the proliferation rate
SSEA4+ cells
  Percentages of SSEA4+ cells: attenuated
iFA model [2]
  Cell stiffness: significantly decreased
[3]; AA5 20 mg/kg systemic, days 7-21 post bleomycin, day 21, vs vehicle
  Total collagen of the lungs (hydroxyproline assay): significantly reduced total collagen
[3]; AA5 20 mg/kg vs vehicle, IF
  Type II marker pro-Surfactant Protein C (proSPC): qualitatively larger number
[3]; AA5 20 mg/kg, day 21
  Percentage of fibrotic areas (H&E): vehicle treated mice displayed significantly more fibrotic areas compared to the AA5 treated animals
